In patent publication US10357481B2 (MERCK SHARP & DOHME CORP., priority 2015, dated 2019):

The compounds below were run against T1, human PDE2A1 (Homo sapiens, UniProt O00408) (assay: IMAP FP PDE selectivity panel, human PDE2A1). Conditions: Lab B; read-out: Human PDE2 Ki (nM) Lab B.
T1 construct: GST; purchased BPS Bioscience (San Diego, Calif.) 60020; host or cells: insect cells
Format: biochemical
Summary of the method: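 Human PDE2A1 tested alongside PDE1–11 by IMAP fluorescence polarization at room temperature. Substrate was 50 nM FAM-cAMP plus 1000 nM cGMP, buffer pH 7.2 with MgCl2 and DTT, enzyme set for 20% conversion. Ten 3-fold compound dilutions; 60 min reaction, then IMAP binding solution, 1 h, parallel/perpendicular fluorescence read.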

T1 sequence (O00408 1-920 isoform O00408-2): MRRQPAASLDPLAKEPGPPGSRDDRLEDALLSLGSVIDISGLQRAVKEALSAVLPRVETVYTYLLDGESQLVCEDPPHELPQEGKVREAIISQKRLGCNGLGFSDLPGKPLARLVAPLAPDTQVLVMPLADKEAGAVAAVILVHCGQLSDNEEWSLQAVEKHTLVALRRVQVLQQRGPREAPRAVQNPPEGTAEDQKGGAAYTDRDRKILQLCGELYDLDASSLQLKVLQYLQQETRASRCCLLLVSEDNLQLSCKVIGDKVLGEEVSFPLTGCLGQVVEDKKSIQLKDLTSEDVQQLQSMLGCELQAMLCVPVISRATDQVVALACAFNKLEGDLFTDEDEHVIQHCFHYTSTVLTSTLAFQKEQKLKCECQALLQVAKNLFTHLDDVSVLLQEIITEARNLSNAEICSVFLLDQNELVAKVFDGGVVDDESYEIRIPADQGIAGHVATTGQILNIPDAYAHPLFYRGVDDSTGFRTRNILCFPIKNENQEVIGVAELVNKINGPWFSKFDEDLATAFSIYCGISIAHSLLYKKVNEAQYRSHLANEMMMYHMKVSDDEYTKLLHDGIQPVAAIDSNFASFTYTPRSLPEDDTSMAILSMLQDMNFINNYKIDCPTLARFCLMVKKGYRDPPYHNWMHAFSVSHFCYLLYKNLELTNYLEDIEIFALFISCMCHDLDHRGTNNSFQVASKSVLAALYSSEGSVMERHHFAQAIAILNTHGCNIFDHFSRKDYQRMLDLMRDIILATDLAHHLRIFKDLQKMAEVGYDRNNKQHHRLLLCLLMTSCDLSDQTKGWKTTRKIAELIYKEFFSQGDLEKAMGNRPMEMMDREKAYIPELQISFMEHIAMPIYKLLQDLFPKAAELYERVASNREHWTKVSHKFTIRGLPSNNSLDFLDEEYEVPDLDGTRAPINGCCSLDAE

Row | Ki [nM] | Compound
1 | 6.3 | Cc1cc(N[C@@H](c2ccc(S(F)(F)(F)(F)F)cc2)C(C)(C)C)n2ncnc2n1 [Example 36, N-{(1R)-2,2-Dimethyl-1-[4-(pentafluoro-λ^6-sulfanyl)phenyl]propyl}-5-methyl [1,2,4]triazolo[1,5-a]pyrimidin-7-amine]
2 | 15 | CC[C@@H](Nc1cc(C)nc2ncnn12)c1ccc(SC(F)(F)F)c(F)c1 [Example 18, N-[(1R)-1-{3-Fluoro-4-[(trifluoromethyl)sulfanyl]phenyl}propyl]-5-methyl[1,2,4]triazolo[1,5-a]pyrimidin-7-amine]
3 | > 2960 | Cc1cc(N[C@H](c2ccc(OC(F)(F)F)c(F)c2)C(C)(C)O)n2ncnc2n1 (single isomer, unassigned) [Example 91]
4 | 8.4 | CC(C)(O)[C@@H](Nc1cc(C(F)(F)F)nc2ncnn12)c1ccc(S(F)(F)(F)(F)F)cc1 (single isomer, unassigned) [Example 177]
5 | > 2960 | Cc1cc(N[C@@H](CC(C)(C)O)c2ccc(C(F)(F)F)c(F)c2)n2ncnc2n1 [Example 153, (4S)-4-[3-Fluoro-4-(trifluoromethyl)phenyl]-2-methyl-4-[(5-methyl[1,2,4]triazolo[1,5-a]pyrimidin-7-yl)amino]butan-2-ol]
6 | > 2960 | Cc1cc(N(C)C(c2ccc(OC(F)(F)F)c(F)c2)C(C)(C)O)n2ncnc2n1 (single isomer, unassigned) [Example 248, (S)- or (R)-1-(3-Fluoro-4-(trifluoromethoxy)phenyl)-2-methyl-1-(methyl(5-methyl-[1,2,4]triazolo [1,5-a]pyrimidine-7-yl)amino) propan-2-ol]
7 | 474 | COc1cc(C(F)(F)F)ccc1C(C)(C)Nc1cc(C)nc2ncnn12 [Example 48, N-{1-[2-Methoxy-4-(trifluoromethyl)phenyl]-1-methylethyl}-5-methyl [1,2,4]triazolo[1,5-a]pyrimidin-7-amine]
8 | 68 | Cc1cc(N[C@H](C)c2ccc(S(F)(F)(F)(F)F)cc2)n2ncnc2n1 [Example 12, 5-Methyl-N-{(1R)-1-[4-(pentafluoro-λ^6-sulfanyl)phenyl)ethyl} [1,2,4]triazolo[1,5-a]pyrimidin-7-amine]
9 | 18 | Cc1cc(N[C@@H](c2ccc(S(F)(F)(F)(F)F)cc2)C2(C)CC2)n2ncnc2n1 [Example 44, 5-Methyl-N-{(R)-(1-methylcyclopropyl)[4-(pentafluoro-λ^6-sulfanyl)phenyl]methyl} [1,2,4]triazolo[1,5-a]pyrimidin-7-amine]
10 | 555 | Cc1cc(N[C@H](c2ccc(C(F)(F)F)c(F)c2)C(C)(C)O)n2ncnc2n1 [Example 99, (1R)-1-[3-Fluoro-4-(trifluoromethyl)phenyl]-2-methyl-1-[(5-methyl [1,2,4]triazolo[1,5-a]pyrimidin-7-yl)amino]propan-2-ol]
11 | 113 | Cc1cc(N[C@H](C)c2ccc(C(F)(F)F)c(Cl)c2)n2ncnc2n1 [Example 5, N-{(1R)-1-[3-Chloro-4-(trifluoromethyl)phenyl]ethyl}-5-methyl[1,2,4]triazolo[1,5-a] pyrimidin-7-amine]
12 | 321 | Cc1cc(NC2(c3ccc(C(F)(F)F)c(F)c3)CC2)n2nc(CO)nc2n1 [Example 196, (7-(1-(3-Fluoro-4-(trifluoromethyl)phenyl)cyclopropylamino)-5-methyl-[1,2,4]triazolo [1,5-a]pyrimidin-2-yl)methanol]
13 | 74 | Cc1cc(N[C@@H](c2ccc(C(F)(F)F)c(F)c2)C(C)(C)C)n2nc(C(F)F)nc2n1 [Example 207, (R)-2-(Difluoromethyl)-N-(1-(3-fluoro-4-(trifluoromethyl)phenyl)-2,2-dimethylpropyl)-5-methyl-[1,2,4]triazolo [1,5-a]pyrimidin-7-amine]
14 | 1430 | C[C@@H](Nc1cnnc2ncnn12)c1ccc(S(F)(F)(F)(F)F)cc1 [Example 259, (R)—N-{1-[4-(Pentafluoro-λ^6-sulfanyl)phenyl]ethyl}-[1,2,4]triazolo[5,1-a][1,2,4]trizain-4-amine]
15 | > 2960 | CC(C)(O)C(Nc1cc(C(F)(F)F)nc2ncnn12)c1ccc(C(F)(F)F)cc1F (single isomer, unassigned) [Example 173, (1S or R)-1-[2-Fluoro-4-(trifluoromethyl)phenyl]-2-methyl-1-{[5-(trifluoromethyl) [1,2,4]triazolo [1,5-a]pyrimidin-7-yl]amino} propan-2-ol]
16 | 252 | CCC(O)(CC)C(Nc1cc(C(F)(F)F)nc2ncnn12)c1ccc(C(F)(F)F)c(F)c1 (single isomer, unassigned) [Example 219, (R)- or (S)-3-((3-Fluoro-4-(trifluoromethyl)phenyl)(5-(trifluoromethyl)-[1,2,4]triazolo [1,5-a]pyrimidin-7-ylamino)methyl) pentan-3-ol]
17 | > 2960 | CC(C)(O)C(Nc1cc(C2CC2)nc2ncnn12)c1ccc(OC(F)(F)F)c(F)c1 (single isomer, unassigned) [Example 140, (1S or R)-1-[(5- Cyclopropyl [1,2,4]triazolo [1,5-a]pyrimidin-7-yl)amino]-1-[3-fluoro-4-(trifluoro-methoxy)phenyl]-2-methylpropan-2-ol]

Row | Ki [nM] | Compound
18 | 742 | Cc1cc(N[C@@H](c2ccc(OC(F)(F)F)cc2F)C(C)(C)O)n2ncnc2n1 [Example 93, (1S)-1-[2-Fluoro-4-(trifluoromethoxy)phenyl]-2-methyl-[(5-methyl-[1,2,4]triazolo[1,5-a]pyrimidin-7-yl)amino]propan-2-ol]
19 | 7.1 | Cc1cc(N[C@@H](c2ccc(OC(F)(F)F)c(F)c2)C(C)(C)C)n2ncnc2n1 [Example 28, N-{(1R)-1-[3-Fluoro-4-(trifluoromethoxy)phenyl]-2,2-dimethylpropyl}-5-methyl[1,2,4]triazolo[1,5-a] pyrimidin-7-amine]
20 | 32 | CC(C)(O)C(Nc1cc(C(F)F)nc2ncnn12)c1ccc(OC(F)F)cc1F (single isomer, unassigned) [Example 181]
21 | 61 | CC[C@@H](Nc1cc(C)nc2ncnn12)c1ccc(C(F)(F)F)c(F)c1 [Example 16, N-{(1R)-1-[3-Fluoro-4-(trifluoromethyl)phenyl]propyl}-5-methyl[1,2,4]triazolo[1,5-a] pyrimidin-7-amine]
22 | 30 | Cc1cc(NC(c2ccc(OC(F)(F)F)cc2F)C(C)(C)O)n2nc(C)nc2n1 (single isomer, unassigned) [Example 135, (1R or S)-1-[(2,5-Dimethyl[1,2,4]triazolo[1,5-a]pyrimidin-7-yl)amino]-1-[2-fluoro-4-(tri-fluoromethoxy)phenyl]-2-methylpropan-2-ol]
23 | 436 | CC(C)c1cc(NC(c2ccc(OC(F)(F)F)cc2F)C(C)(C)O)n2ncnc2n1 (single isomer, unassigned) [Example 137, (1R or S)-1-[2-Fluoro-4-(trifluoro-methoxy)phenyl]-2-methyl-1-{[5-(1-methylethyl) [1,2,4]triazolo [1,5-a]pyrimidin-7-yl]amino} propan-2-ol]
24 | 310 | Cc1cc(NC(c2ccc(C(F)(F)F)cn2)C(C)C)n2ncnc2n1 (single isomer, unassigned) [Example 212, (S)- or (R)-5-Methyl-N-(2-methyl-1-(5-(trifluoromethyl)pyridin-2-yl)propyl)-[1,2,4]triazolo [1,5-a]pyrimidin-7-amine]
25 | 184 | CC(C)(O)C(Nc1cc(C(F)(F)F)nc2ncnn12)c1ccc2c(c1)OC(F)(F)O2 (single isomer, unassigned) [Example 167, (1S or R)-1-(2,2-Difluoro-1,3-benzodioxol-5-yl)-2-methyl-1-{[5-(trifluoromethyl) [1,2,4]triazolo [1,5-a]pyrimidin-7-yl]amino} propan-2-ol]
26 | > 2960 | CC(C)(O)C(Nc1cc(C(F)(F)F)nc2ncnn12)c1ccc2c(c1)OC(F)(F)O2 (single isomer, unassigned) [Example 168, (1R or S)-1-(2,2-Difluoro-1,3-benzodioxol-5-yl)-2-methyl-1-{[5-(trifluoromethyl) [1,2,4]triazolo [1,5-a]pyrimidin-7-yl]amino} propan-2-ol]
27 | 15 | Cc1cc(N[C@@H](c2ccc(OC(F)(F)F)cc2)C(C)(C)O)n2ncnc2n1 [Example 96, (1S)-2-Methyl-1-[(5-methyl [1,2,4]triazolo[1,5-a]pyrimidin-7-yl)amino]-1-[4-(trifluoromethoxy)phenyl]propan-2-ol]
28 | ~1160 | Cc1nc2ncnn2c(N[C@H](C)c2ccc(C(F)(F)F)cc2)c1C [Example 85, 5,6-Dimethyl-N-{(1R)-1-[4-(trifluoromethyl)phenyl]ethyl}[1,2,4]triazolo[1,5-a]pyrimidin-7-amine]
29 | 210 | COc1cc(N[C@H](c2ccc(C(F)(F)F)c(F)c2)C(C)(C)O)n2ncnc2n1 (single isomer, unassigned) [Example 236]
30 | 13 | Cc1cc(N[C@@H](c2ccc(S(F)(F)(F)(F)F)cc2)C(C)C)n2ncnc2n1 [Example 22, 5-Methyl-N-{(1R)-2-methyl-1-[4-(pentafluoro-λ^6-sulfanyl)phenyl]propyl}[1,2,4]triazolo[1,5-a] pyrimidin-7-amine]
31 | 49 | Cc1cc(NC(c2ccc(C(F)F)cc2)C(C)(C)O)n2ncnc2n1 (single isomer, unassigned) [Example 108, (1S or R)-1-[4-(Difluoromethyl)phenyl]-2-methyl-1-[(5-methyl [1,2,4]triazolo [1,5-a]pyrimidin-7-yl)amino] propan-2-ol]
32 | ~1540 | Cc1cc(N[C@@H](C)c2ccc(C(F)(F)F)cc2)n2ncnc2n1 [Example 2, 5-Methyl-N-{(1S)-1-[4-(trifluoromethyl)phenyl]ethyl}[1,2,4]triazolo[1,5-a]pyrimidin-7-amine]
33 | 57 | Cc1cc(N[C@H](C)c2ccc(OC(F)(F)F)c(F)c2)n2ncnc2n1 [Example 8, N-{(1R)-1-[3-Fluoro-4-(trifluoromethoxy)phenyl]ethyl}-5-methyl[1,2,4]triazolo[1,5-a] pyrimidin-7-amine]
